In patent US8648066B2 (Exelixis, Inc., priority 2009, dated 2014):

target: mTOR/GbL/Raptor (mTORC1) (Homo sapiens, UniProt P42345); assay: mTOR/GbL/Raptor (mTORC1) ELISA assay; type: biochemical; conditions: phosphorylation of 4E-BP1; 0.2 nM mTORC1, 10 μM ATP; read-out: IC50 in this assay (mTORC1 ELISA)
Summary of the method: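 ELISA read-out: phospho-4E-BP1 captured on Ni-chelate plates and detected with anti-phospho antibody plus HRP-anti-IgG luminescence. The kinase step ran 120 min at ambient temperature with 0.2 nM human mTORC1, 10 µM ATP, 50 nM His-4E-BP1, 10 mM MnCl2, pH 7.2 HEPES.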

IC50 | SMILES
250 to 1000 nM | Cc1nc(CN(C)C)nc(N2CCOc3ccc(-c4cnc5sc(N)nc5c4)cc3C2)c1Br [Example 673, 6-(4-{5-bromo-2-[(dimethylamino)methyl]-6-methylpyrimidin-4-yl}-2,3,4,5-tetrahydro-1,4-benzoxazepin-7-yl)[1,3]thiazolo[5,4-b]pyridin-2-amine]
10 to 50 nM | Cc1nc(CN(C)C)nc(N2CCOc3ccc(-c4cnc5sc(N)nc5c4)cc3C2)c1C(C)C [Example 674, 6-(4-{2-[(dimethylamino)methyl]-6-methyl-5-(1-methylethyl)pyrimidin-4-yl}-2,3,4,5-tetrahydro-1,4-benzoxazepin-7-yl)[1,3]thiazolo[5,4-b]pyridin-2-amine]
50 to 250 nM | Cc1nc2cc(-c3ccc4c(c3)CN(c3nc(CN5CCCC5)nc(C)c3C(C)C)CCO4)ccc2[nH]1 [Example 675]
≤ 10 nM | Cc1nc2cc(-c3ccc4c(c3)CN(c3nc(CF)nc5c3CC(C)(C)CC5)CCO4)ccc2[nH]1 [Example 676, 4-[2-(fluoromethyl)-6,6-dimethyl-5,6,7,8-tetrahydroquinazolin-4-yl]-7-(2-methyl-1H-benzimidazol-5-yl)-2,3,4,5-tetrahydro-1,4-benzoxazepine]
≥ 2000 nM | Cc1nc2cc(-c3ccc4c(c3)CN(c3nc(CN(C)C)nc(C)c3Cl)CCO4)ccc2[nH]1 [Example 677, 1-{5-chloro-4-methyl-6-[7-(2-methyl-1H-benzimidazol-5-yl)-2,3-dihydro-1,4-benzoxazepin-4(5H)-yl]pyrimidin-2-yl}-N,N-dimethylmethanamine]
250 to 1000 nM | Cc1nc(CN(C)C)nc(N2CCOc3ccc(-c4cnc5sc(N)nc5c4)cc3C2)c1Cl [Example 678, 6-(4-{5-chloro-2-[(dimethylamino)methyl]-6-methylpyrimidin-4-yl}-2,3,4,5-tetrahydro-1,4-benzoxazepin-7-yl)[1,3]thiazolo[5,4-b]pyridin-2-amine]
10 to 50 nM | Cc1nc2cc(-c3ccc4c(c3)CN(c3nc(CNCCF)nc(C)c3C(C)C)CCO4)ccc2[nH]1 [Example 679, 2-fluoro-N-({4-methyl-6-[7-(2-methyl-1H-benzimidazol-5-yl)-2,3-dihydro-1,4-benzoxazepin-4(5H)-yl]-5-(1-methylethyl)pyrimidin-2-yl}methyl)ethanamine]
≤ 10 nM | Cc1nc(CNCCF)nc(N2CCOc3ccc(-c4cnc5sc(N)nc5c4)cc3C2)c1C(C)C [Example 680, 6-{4-[2-{[(2-fluoroethyl)amino]methyl}-6-methyl-5-(1-methylethyl)pyrimidin-4-yl]-2,3,4,5-tetrahydro-1,4-benzoxazepin-7-yl}[1,3]thiazolo[5,4-b]pyridin-2-amine]
50 to 250 nM | Cc1nc2cc(-c3ccc4c(c3)CN(c3nc(CN(C)C)nc(C)c3-c3ccccc3)CCO4)ccc2[nH]1 [Example 681, N,N-dimethyl-1-{4-methyl-6-[7-(2-methyl-1H-benzimidazol-5-yl)-2,3-dihydro-1,4-benzoxazepin-4(5H)-yl]-5-phenylpyrimidin-2-yl}methanamine]
10 to 50 nM | Cc1nc(CN(C)C)nc(N2CCOc3ccc(-c4cnc5sc(N)nc5c4)cc3C2)c1-c1ccccc1 [Example 682, 6-(4-{2-[(dimethylamino)methyl]-6-methyl-5-phenylpyrimidin-4-yl}-2,3,4,5-tetrahydro-1,4-benzoxazepin-7-yl)[1,3]thiazolo[5,4-b]pyridin-2-amine]
10 to 50 nM | Cc1nc2cc(-c3ccc4c(c3)CN(c3nc(NCCN(C)C)nc(C)c3Cc3ccc(F)cc3)CCO4)ccc2[nH]1 [Example 683, N′-{5-[(4-fluorophenyl)methyl]-4-methyl-6-[7-(2-methyl-1H-benzimidazol-5-yl)-2,3-dihydro-1,4-benzoxazepin-4(5H)-yl]pyrimidin-2-yl}-N,N-dimethylethane-1,2-diamine]
≤ 10 nM | CC1(C)CCc2nc(CC#N)nc(N3CCOc4ccc(-c5cnc6sc(N)nc6c5)cc4C3)c2C1 [Example 684, {4-[7-(2-amino[1,3]thiazolo[5,4-b]pyridin-6-yl)-2,3-dihydro-1,4-benzoxazepin-4(5H)-yl]-6,6-dimethyl-5,6,7,8-tetrahydroquinazolin-2-yl}acetonitrile]
50 to 250 nM | CCN(CC)Cc1nc(C)c(C(C)C)c(N2CCOc3ccc(-c4ccc5nc(C)[nH]c5c4)cc3C2)n1 [Example 685, N-ethyl-N-({4-methyl-6-[7-(2-methyl-1H-benzimidazol-5-yl)-2,3-dihydro-1,4-benzoxazepin-4(5H)-yl]-5-(1-methylethyl)pyrimidin-2-yl}methyl)ethanamine]
10 to 50 nM | CC(=O)OCc1nc(C)c(C(C)C)c(N2CCOc3ccc(-c4ccc5nc(C)[nH]c5c4)cc3C2)n1 [Example 686, {4-methyl-6-[7-(2-methyl-1H-benzimidazol-5-yl)-2,3-dihydro-1,4-benzoxazepin-4(5H)-yl]-5-(1-methylethyl)pyrimidin-2-yl}methyl acetate]
≤ 10 nM | Cc1nc2ccc(-c3ccc4c(c3)CN(c3nc(CO)nc(C)c3C(C)C)CCO4)cc2[nH]1 [Example 687, {4-methyl-6-[7-(2-methyl-1H-benzimidazol-5-yl)-2,3-dihydro-1,4-benzoxazepin-4(5H)-yl]-5-(1-methylethyl)pyrimidin-2-yl}methanol]
≤ 10 nM | Cc1nc(N)nc(N2CCOc3ccc(-c4cnc5[nH]cnc5c4)cc3C2)c1Cc1ccc(F)cc1 [Example 689, 5-[(4-fluorophenyl)methyl]-4-[7-(3H-imidazo[4,5-b]pyridin-6-yl)-2,3-dihydro-1,4-benzoxazepin-4(5H)-yl]-6-methylpyrimidin-2-amine]
≤ 10 nM | Cc1nc2cc(-c3ccc4c(c3)CN(c3nc(N)nc(C)c3Cc3ccc(F)cc3)CCO4)cnc2[nH]1 [Example 690, 5-[(4-fluorophenyl)methyl]-4-methyl-6-[7-(2-methyl-3H-imidazo[4,5-b]pyridin-6-yl)-2,3-dihydro-1,4-benzoxazepin-4(5H)-yl]pyrimidin-2-amine]
1000 to 2000 nM | COc1ccc2c(N3CCOc4ccc(-c5cnc6[nH]cnc6c5)cc4C3)nc(CN(C)C)nc2c1 [Example 691, 1-{4-[7-(3H-imidazo[4,5-b]pyridin-6-yl)-2,3-dihydro-1,4-benzoxazepin-4(5H)-yl]-7-(methyloxy)quinazolin-2-yl}-N,N-dimethylmethanamine]
≤ 10 nM | Cc1nc(N)nc(N2CCOc3ccc(-c4cnc5sc(N)nc5c4)cc3C2)c1Cc1ccc(F)cc1 [Example 692, 6-(4-{2-amino-5-[(4-fluorophenyl)methyl]-6-methylpyrimidin-4-yl}-2,3,4,5-tetrahydro-1,4-benzoxazepin-7-yl)[1,3]thiazolo[5,4-b]pyridin-2-amine]
